Measurements published in patent US6943187B2, “Pyrrolidine derivative hair growth compositions and uses” (GPI Nil Holdings, Inc., priority 1997, dated 2005).
Entries after “also recorded” stand apart in the source; their conditions may differ.

Legend:
FKBP12 = FKBP12 (Homo sapiens, UniProt P62942); assay: Inhibition of peptidyl-prolyl isomerase (rotamase) activity, chymotrypsin-coupled assay (Ki test procedure); format: biochemical; details: apparent Ki, rotamase inhibition of FKBP, substrate N-succinyl-Ala-Ala-Pro-Phe-p-nitroanilide
Chain of FKBP12 (P62942 whole entry, species assumed): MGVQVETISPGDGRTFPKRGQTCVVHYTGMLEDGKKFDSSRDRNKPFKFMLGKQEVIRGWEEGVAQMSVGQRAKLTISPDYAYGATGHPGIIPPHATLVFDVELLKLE
Method: The inhibition of the prolyl peptidyl cis-trans isomerase activity of FKBP may be measured as an indicator of this affinity.
The cis-trans isomerization of an alanine-proline bond in a model substrate, N-succinyl-Ala-Ala-Pro-Phe-p-nitroanilide, is monitored spectrophotometrically in a chymotrypsin-coupled assay, which releases para-nitroanilide from the trans form of the substrate. The inhibition of this reaction caused by the addition of different concentrations of inhibitor is determined, and the data is analyzed as a change in first-order rate constant as a function of inhibitor concentration to yield the apparent K1 values.
In a plastic cuvette are added 950 ml of ice cold assay buffer (25 mM HEPES, pH 7.8, 100 mM NaCl), 10 ml of FKBP (2.5 mM in 10 mM Tris-Cl pH 7.5, 100 mM NaCl, 1 mM dithiothreitol), 25 ml of chymotrypsin (50 mg/ml in 1 mM HCl) and 10 ml of test compound at various concentrations in dimethyl sulfoxide.

C57 black 6 mice = assay: In vivo hair generation test, Experiment A (topical, shaved area); details: 30 μM topical in 20% propylene glycol, 3 applications over 5 days, after six weeks; listed as GPI 1046
Excerpt: Care was taken not to nick or cause abrasion to the underlaying dermal layers. The animals were in anagen growth phase, as indicated by the pinkish color of the skin. […] Hair growth was quantitated by the percent of shaved area covered by new hair growth during this time period.

hair growth = details: topical, but not oral, application; cited from earlier work

| Structure (SMILES) | Ki (FKBP12) [nM] | hair regrowth in the shaved area (C57 black 6 mice) | stimulation of hair growth (hair growth) |
| --- | --- | --- | --- |
| CCC(C)(C)C(=O)C(=O)N1CCC[C@H]1C(=O)OCCCc1cc(OC)c(OC)c(OC)c1 [Compound 3, 3-(3,4,5-trimethoxyphenyl)-1-propyl (2S)-1-(3,3-dimethyl-1,2-dioxopentyl)-2-pyrrolidine-carboxylate] | 200 | – | – |
| CCC(C)(C)C(=O)C(=O)N1CCC[C@H]1C(=O)OCCCc1ccc2c(c1)OCO2 [Compound 5, 3-(4,5-methylenedioxyphenyl)-1-propyl (2S)-1-(3,3-dimethyl-1,2-dioxopentyl)-2-pyrrolidine-carboxylate] | 170 | – | – |
| CCC(C)(C)C(=O)C(=O)N1CCC[C@H]1C(=O)OCCCC1CCCCC1 [Compound 7, 3-cyclohexyl-1-propyl (2S)-1-(3,3-dimethyl-1,2-dioxopentyl)-2-pyrrolidinecarboxylate] | 200 | – | – |
| CCC(C)(C)C(=O)C(=O)N1CCC[C@H]1C(=O)OCCCc1cc(OC)ccc1OC [Compound 14, 3-(2,5-dimethoxyphenyl)-1-propyl (2S)-1-(3,3-dimethyl-1,2-dioxopentyl)-2-pyrrolidine-carboxylate] | 250 | – | – |
| CCC(C)(C)C(=O)C(=O)N1CCC[C@H]1C(=O)OCCc1cc(OC)c(OC)c(OC)c1 [Compound 16, 2-(3,4,5-trimethoxyphenyl)-1-ethyl (2S)-1-(3,3-dimethyl-1,2-dioxopentyl)-2-pyrrolidine-carboxylate] | 120 | – | – |
| CCC(C)(C)C(=O)C(=O)N1CCC[C@H]1C(=O)OCCCc1cccnc1 [Compound 17, 3-(3-Pyridyl)-1-propyl (2S)-1-(3,3-dimethyl-1,2-dioxopentyl)-2-pyrrolidinecarboxylate] | 5 | essentially, complete hair regrowth; also recorded: essentially complete hair regrowth | – |
| CCC(C)(C)C(=O)C(=O)N1CCC[C@H]1C(=O)OCCCc1ccccn1 [Compound 18, 3-(2-Pyridyl)-1-propyl (2S)-1-(3,3-dimethyl-1,2-dioxopentyl)-2-pyrrolidinecarboxylate] | 195 | – | – |
| CCC(C)(C)C(=O)C(=O)N1CCC[C@H]1C(=O)OCCCc1ccncc1 [Compound 19, 3-(4-Pyridyl)-1-propyl (2S)-1-(3,3-dimethyl-1,2-dioxopentyl)-2-pyrrolidinecarboxylate] | 23 | – | – |
| CC(C)(C)C(=O)C(=O)N1CCC[C@H]1C(=O)OCCCc1ccccc1 [Compound 21, 3-phenyl-1-propyl (2S)-1-(2-tert-butyl-1,2-dioxoethyl)-2-pyrrolidinecarboxylate] | 95 | – | – |
| O=C(CCC1CCCCC1)C(=O)N1CCC[C@H]1C(=O)OCCCc1ccccc1 [Compound 22, 3-phenyl-1-propyl (2S)-1-(2-cyclohexyl-ethyl-1,2-dioxoethyl)-2-pyrrolidinecarboxylate] | 1020 | – | – |
| O=C(CCC1CCCCC1)C(=O)N1CCC[C@H]1C(=O)OCCCc1cccnc1 [Compound 23, 3-(3-pyridyl)-1-propyl (2S)-1-(2-cyclohexylethyl-1,2-dioxoethyl)-2-pyrrolidinecarboxylate] | 1400 | – | – |
| CC(C)(C)C(=O)C(=O)N1CCC[C@H]1C(=O)OCCCc1cccnc1 [Compound 24, 3-(3-pyridyl)-1-propyl (2S)-1-(2-tert-butyl-1,2-dioxoethyl)-2-pyrrolidinecarboxylate] | 3 | – | – |
| CCC(C)(C)C(=O)C(=O)N1CCC[C@H]1C(=O)OCCC(c1ccccc1)c1ccccc1 [Compound 25, 3,3-diphenyl-1-propyl (2S)-1-(3,3-dimethyl-1,2-dioxopentyl)-2-pyrrolidinecarboxylate] | 5 | – | – |
| CC(C)(C)C(=O)C(=O)N1CCC[C@H]1C(=O)OCCC(c1ccccc1)c1ccccc1 [Compound 28, 3,3-Diphenyl-1-propyl (2S)-1-(3,3-dimethyl-1,2-dioxobutyl)-2-pyrrolidinecarboxylate] | 5 | – | – |
| C=CC[C@@H]1/C=C(\C)C[C@H](C)C[C@H](OC)[C@H]2O[C@@](O)(C(=O)C(=O)N3CCCC[C@H]3C(=O)O[C@H](/C(C)=C/[C@@H]3CC[C@@H](O)[C@H](OC)C3)[C@H](C)[C@@H](O)CC1=O)[C@H](C)C[C@@H]2OC [FK506] | – | – | stimulates hair growth in a dose-dependent manner |
